Laboratory results published in patent publication EP4786487A1, “PEPTIDE” (Peptidream Inc, priority 2023, dated 2025).
Like-named read-outs stand apart in the source and are kept apart here. Starred links: 1 amine or outer side, 2 acyl side, 3 side chain; linkers in the order of their positions; H or OH if unused. Positions of bridges follow the written chain, without caps; N, C: chain ends. Non-standard residues stand in square brackets, D forms with d. Residues, ends and D or L forms follow the SMILES beside them. *: point of attachment. X6 = CS(=O)(=O)c1ccc(-c2ccc(C[C@H](N[*:1])C(=O)[*:2])cc2)cc1; Phe(3-OCH2COOH) = N[C@@H](Cc1cccc(OCC(=O)O)c1)C(=O)O; X11 = O=C([C@H](Cc1ccc(-c2ccccc2Cl)cc1)N[*:1])[*:2]; Trp(6-OH) = N[C@@H](Cc1c[nH]c2cc(O)ccc12)C(=O)O; Phe(4-COOH) = N[C@@H](Cc1ccc(C(=O)O)cc1)C(=O)O; Trp(7-aza) = N[C@@H](Cc1c[nH]c2ncccc12)C(=O)O; Piperazinyl(4-CH2COOH) = O=C(O)CN1CCN(*)CC1; Piperidinyl(4-CH2COOH) = O=C(O)CC1CCN(*)CC1; Gly(N(CH2)3COOH) = O=C(O)CCCNCC(=O)O; X1 = CCCCCCC[C@H](N[*:1])C(=O)[*:2]; NMeF = CN[C@@H](Cc1ccccc1)C(=O)O; 4Pal = N[C@@H](Cc1ccncc1)C(=O)O; NMeE = CN[C@@H](CCC(=O)O)C(=O)O; Gly(N(CH2)3NH2) = NCCCNCC(=O)O; hCys = N[C@@H](CCS)C(=O)O; NMeA = CN[C@@H](C)C(=O)O; Dap = NC[C@H](N)C(=O)O; Sar = CNCC(=O)O

Assays:
[1] = target: T1, Myostatin (Homo sapiens, UniProt O14793); experiment: HepG2 reporter gene assay, Evaluation Procedure (2): 2-concentrations assay, myostatin inhibition; assay type: cell-based
T1 construct: active myostatin (also called mature myostatin) is a homodimer consisting of two C-terminal growth factor domains; purchased R&D systems 788-G8/CF
T1 sequence (O14793 267-375): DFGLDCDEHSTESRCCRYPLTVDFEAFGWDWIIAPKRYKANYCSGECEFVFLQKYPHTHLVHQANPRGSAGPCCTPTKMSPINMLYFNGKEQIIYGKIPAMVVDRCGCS
How it was run: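 Myostatin inhibition was measured in a luciferase reporter assay using HepG2 cells transfected with a pGL3 vector containing 12 CAGA repeats upstream of luciferase. After 20 to 24 hours with 10 ng/mL myostatin, cells received One-Glo:PBS (1:1) at 100 µL/well, were shaken for 5 min, and 20 µL/well was moved to 384-well plates and read on an Envision 2104.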

[2] = target: T2, GDF-11 (Homo sapiens, UniProt O95390); experiment: HepG2 reporter gene assay, Evaluation Procedure (2): 2-concentrations assay, GDF-11 inhibition; assay type: cell-based; details: for inhibition at 0.03 µM: HepG2, peptide 30nM, read-out: GDF11 Inhibition 30nM; for inhibition at 0.03 µM / inhibition at 0.1 µM: GDF-11 10 ng/mL; for inhibition at 0.1 µM: HepG2, peptide 100nM, read-out: GDF11 Inhibition 100nM
T2 construct: purchased R&D systems 1958-GD-G8/CF
T2 sequence (O95390 299-407): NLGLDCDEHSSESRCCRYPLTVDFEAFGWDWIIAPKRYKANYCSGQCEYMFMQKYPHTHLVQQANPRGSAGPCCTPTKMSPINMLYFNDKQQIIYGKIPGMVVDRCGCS
How it was run: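 HepG2 cells carrying the transfected pGL3(CAGA)12-luc reporter, a pGL3 vector with luciferase placed downstream of 12 CAGA repeats, were stimulated with GDF-11 at a final 10 ng/mL together with test peptide. Blank wells received no GDF-11 and no peptide. Plates were incubated 20 to 24 hours at 37°C with 5% CO2. Luminescence from One-Glo substrate was read to calculate percent inhibition.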

[3] = peptide 30nM, Myostatin 10 ng/mL, HepG2, read-out: Myostatin Inhibition 30nM
[4] = peptide 100nM, Myostatin 10 ng/mL, HepG2, read-out: Myostatin Inhibition 100nM
[5] = Table 7-3/7-4, myostatin 10 ng/mL, peptide at the higher of the 2 concentrations, HepG2, read-out: inhibition rate (myostatin inhibition assay)
[6] = Table 7-3/7-4, myostatin 10 ng/mL, peptide at the lower of the 2 concentrations, HepG2, read-out: inhibition rate (myostatin inhibition assay)
[7] = HepG2, first GDF-11 column of Table 7-3/7-4, GDF-11 10 ng/mL, peptide at the lower of the 2 concentrations, read-out: inhibition rate (GDF-11 inhibition assay)
[8] = HepG2, second GDF-11 column of Table 7-3/7-4, GDF-11 10 ng/mL, peptide at the higher of the 2 concentrations, read-out: inhibition rate (GDF-11 inhibition assay)
[9] = HepG2, read-out: inhibition rate (myostatin inhibition assay)

Compound | inhibition at 0.03 µM [1, 3] [%] | inhibition at 0.1 µM [1, 4] [%] | inhibition at 0.03 µM [2] [%] | inhibition at 0.1 µM [2] [%] | inhibition at 0.1 µM [1, 5] [%] | inhibition at 0.03 µM [1, 6] [%] | inhibition [2, 7] [%] | inhibition [2, 8] [%] | other results
CC[C@H](C)[C@@H]1NC(=O)[C@H](Cc2ccccc2)N(C)C(=O)[C@H](Cc2ccc(O)cc2)NC(=O)[C@H](Cc2c[nH]c3ncccc23)NC(=O)[C@H](C)NC(=O)CN(CCCC(=O)O)C(=O)CSC[C@H](C(=O)N[C@H](CO)C(=O)N[C@H](CO)C(=O)N[C@H](CO)C(=O)N[C@H](CCCCN)C(=O)O)NC(=O)[C@H](Cc2ccccc2)N(C)C(=O)[C@H](C)N(C)C(=O)[C@H](CC(C)C)NC(=O)[C@H](Cc2ccccc2)N(C)C(=O)[C@H](CCCNC(=N)N)NC(=O)[C@H](Cc2ccc(C(=O)O)cc2)NC(=O)[C@H](Cc2ccccc2)NC(=O)CN(C)C1=O [Myostatin_99_v37] ({CH2CO}-[Gly(N(CH2)3COOH)]A[Trp(7-aza)]Y[NMeF]I[Sar]F[Phe(4-COOH)]R[NMeF]L[NMeA][NMeF][dC][dS][dS][dS][dK]-OH; thioether N-15) | 69 | 88 | 0 | 0 |  |  |  |  | 
CCCCCCC[C@@H]1NC(=O)[C@H](Cc2ccccc2)N(C)C(=O)[C@H](CCCNC(=N)N)NC(=O)[C@H](Cc2ccc(C(=O)O)cc2)NC(=O)[C@H](Cc2cccc(OCC(=O)O)c2)NC(=O)[C@H](C)N(C)C(=O)[C@H]([C@@H](C)CC)NC(=O)[C@H](Cc2ccccc2)N(C)C(=O)[C@H](Cc2ccc(O)cc2)NC(=O)[C@H](Cc2c[nH]c3ccccc23)NC(=O)[C@H](C)NC(=O)CN(CCCC(=O)O)C(=O)CSCC[C@@H](C(=O)O)NC(=O)[C@H](Cc2ccccc2)N(C)C(=O)[C@H](C)N(C)C1=O [Myostatin_99_v442] ({CH2CO}-[Gly(N(CH2)3COOH)]AWY[NMeF]I[NMeA][Phe(3-OCH2COOH)][Phe(4-COOH)]R[NMeF][X1][NMeA][NMeF][hCys]-OH; thioether N-15) |  |  |  |  | 100 | 100 | 0 | 0 | 
CCCCCCC[C@@H]1NC(=O)[C@H](Cc2ccccc2)N(C)C(=O)[C@H](CCCNC(=N)N)NC(=O)[C@H](Cc2ccc(C(=O)O)cc2)NC(=O)[C@H](Cc2cccc(OCC(=O)O)c2)NC(=O)[C@H](C)N(C)C(=O)[C@H]([C@@H](C)CC)NC(=O)[C@H](Cc2ccccc2)N(C)C(=O)[C@H](Cc2ccc(O)cc2)NC(=O)[C@H](Cc2ccc(-c3ccc(S(C)(=O)=O)cc3)cc2)NC(=O)[C@H](C)NC(=O)CN(CCCC(=O)O)C(=O)CSC[C@H](C(=O)O)NC(=O)[C@H](Cc2ccccc2)N(C)C(=O)[C@H](C)N(C)C1=O [Myostatin_99_v370] ({CH2CO}-[Gly(N(CH2)3COOH)]A[X6]Y[NMeF]I[NMeA][Phe(3-OCH2COOH)][Phe(4-COOH)]R[NMeF][X1][NMeA][NMeF][dC]-OH; thioether N-15) |  |  |  |  |  |  |  |  | inhibition at 0.03 µM [1, 9]: 100%; inhibition at 0.1 µM [1, 9]: 100%; inhibition ([2]; HepG2, read-out: inhibition rate (GDF-11 inhibition assay), Table 7-3/7-4, GDF-11 10 ng/mL, peptide at the higher of the 2 concentrations): 0%; inhibition ([2]; HepG2, read-out: inhibition rate (GDF-11 inhibition assay), Table 7-3/7-4, GDF-11 10 ng/mL, peptide at the lower of the 2 concentrations): 0%
CC[C@H](C)[C@@H]1NC(=O)[C@H](Cc2ccccc2)N(C)C(=O)[C@H](Cc2ccc(O)cc2)NC(=O)[C@H](Cc2c[nH]c3ncccc23)NC(=O)[C@H](CCC(=O)O)NC(=O)[C@H](C)NC(=O)CSC[C@H](C(=O)N[C@H](CO)C(=O)N[C@H](CO)C(=O)N[C@H](CO)C(=O)N[C@H](CCCCN)C(=O)O)NC(=O)[C@H](Cc2ccccc2)N(C)C(=O)[C@H](C)N(C)C(=O)[C@H](CC(C)C)NC(=O)[C@H](Cc2ccccc2)N(C)C(=O)[C@H](CCCNC(=N)N)NC(=O)[C@H](Cc2ccc(C(=O)O)cc2)NC(=O)[C@H](Cc2ccncc2)NC(=O)CN(C)C1=O [Myostatin_99_v40] ({CH2CO}-AE[Trp(7-aza)]Y[NMeF]I[Sar][4Pal][Phe(4-COOH)]R[NMeF]L[NMeA][NMeF][dC][dS][dS][dS][dK]-OH; thioether N-15) | 39 | 67 | 0 | 0 |  |  |  |  | 
CC[C@H](C)[C@@H]1NC(=O)[C@H](Cc2ccccc2)N(C)C(=O)[C@H](Cc2ccc(O)cc2)NC(=O)[C@H](Cc2c[nH]c3ccccc23)NC(=O)[C@H](CCCNC(=N)N)NC(=O)CN(CCCN)C(=O)CSC[C@@H](C(N)=O)NC(=O)[C@H](Cc2ccccc2)N(C)C(=O)[C@H](C)N(C)C(=O)[C@H](CC(C)C)NC(=O)[C@H](Cc2ccccc2)N(C)C(=O)[C@H](CCCNC(=N)N)NC(=O)[C@H](Cc2ccc(O)cc2)NC(=O)[C@H](Cc2ccc(O)cc2)NC(=O)CN(C)C1=O [Myostatin_000099_01ApG] ({CH2CO}-[Gly(N(CH2)3NH2)]RWY[NMeF]I[Sar]YYR[NMeF]L[NMeA][NMeF]C-NH2; thioether N-15) | 19 | 65 | 0 | 0 |  |  |  |  | 
CCCCCCC[C@@H]1NC(=O)[C@H](Cc2ccccc2)N(C)C(=O)[C@H](CCCNC(=N)N)NC(=O)[C@H](Cc2ccc(C(=O)O)cc2)NC(=O)[C@H](Cc2ccc(-c3ccccc3Cl)cc2)NC(=O)CN(C)C(=O)[C@H]([C@@H](C)CC)NC(=O)[C@H](Cc2ccccc2)N(C)C(=O)[C@H](Cc2ccc(O)cc2)NC(=O)[C@H](Cc2c[nH]c3cc(O)ccc23)NC(=O)[C@H](C)NC(=O)[C@H](C)NC(=O)CSC[C@H](C(=O)N2CCN(CC(=O)O)CC2)NC(=O)[C@H](Cc2ccccc2)N(C)C(=O)[C@H](CCC(=O)O)N(C)C1=O [Myostatin_99_v325] ({CH2CO}-AA[Trp(6-OH)]Y[NMeF]I[Sar][X11][Phe(4-COOH)]R[NMeF][X1][NMeE][NMeF][dC]-{Piperazinyl(4-CH2COOH)}; thioether N-15) |  |  |  |  | 100 | 100 | 49 | 86 | 
CC[C@H](C)[C@@H]1NC(=O)[C@H](Cc2ccccc2)N(C)C(=O)[C@H](Cc2ccc(O)cc2)NC(=O)[C@H](Cc2c[nH]c3ncccc23)NC(=O)[C@H](C)NC(=O)CN(CCCC(=O)O)C(=O)CSC[C@H](C(=O)NCC(=O)N[C@H](CCC(=O)O)C(=O)NCC(=O)N[C@H](CCCCN)C(=O)O)NC(=O)[C@H](Cc2ccccc2)N(C)C(=O)[C@H](C)N(C)C(=O)[C@H](CC(C)C)NC(=O)[C@H](Cc2ccccc2)N(C)C(=O)[C@H](CCCNC(=N)N)NC(=O)[C@H](Cc2ccc(C(=O)O)cc2)NC(=O)[C@H](Cc2ccccc2)NC(=O)CN(C)C1=O [Myostatin_99_v30] ({CH2CO}-[Gly(N(CH2)3COOH)]A[Trp(7-aza)]Y[NMeF]I[Sar]F[Phe(4-COOH)]R[NMeF]L[NMeA][NMeF][dC]G[dE]G[dK]-OH; thioether N-15) | 31 | 60 | 0 | 0 |  |  |  |  | 
CCCCCCC[C@@H]1NC(=O)[C@H](Cc2ccccc2)N(C)C(=O)[C@H](CCCNC(=N)N)NC(=O)[C@H](Cc2ccc(C(=O)O)cc2)NC(=O)[C@H](Cc2cccc(OCC(=O)O)c2)NC(=O)CN(C)C(=O)[C@H]([C@@H](C)CC)NC(=O)[C@H](Cc2ccccc2)N(C)C(=O)[C@H](Cc2ccc(O)cc2)NC(=O)[C@H](Cc2c[nH]c3ccccc23)NC(=O)[C@H](C)NC(=O)[C@H](C)NC(=O)CSC[C@H](C(=O)N2CCC(CC(=O)O)CC2)NC(=O)[C@H](Cc2ccccc2)N(C)C(=O)[C@H](C)N(C)C1=O [Myostatin_99_v313] ({CH2CO}-AAWY[NMeF]I[Sar][Phe(3-OCH2COOH)][Phe(4-COOH)]R[NMeF][X1][NMeA][NMeF][dC]-{Piperidinyl(4-CH2COOH)}; thioether N-15) |  |  |  |  | 100 | 100 | 12 | 40 | 
CC[C@H](C)[C@@H]1NC(=O)[C@H](Cc2ccccc2)N(C)C(=O)[C@H](Cc2ccc(O)cc2)NC(=O)[C@H](Cc2c[nH]c3ccccc23)NC(=O)[C@H](CN)NC(=O)[C@H](C)NC(=O)CSC[C@@H](C(N)=O)NC(=O)[C@H](Cc2ccccc2)N(C)C(=O)[C@H](C)N(C)C(=O)[C@H](CC(C)C)NC(=O)[C@H](Cc2ccccc2)N(C)C(=O)[C@H](CCCNC(=N)N)NC(=O)[C@H](Cc2ccc(O)cc2)NC(=O)[C@H](Cc2ccc(O)cc2)NC(=O)CN(C)C1=O [Myostatin_000099_02Dap] ({CH2CO}-A[Dap]WY[NMeF]I[Sar]YYR[NMeF]L[NMeA][NMeF]C-NH2; thioether N-15) | 50 | 82 | 0 | 2 |  |  |  |  | 
